According to patent US20160326142A1, “PYRAZOLE CARBOXAMIDE COMPOUNDS, COMPOSITIONS AND METHODS OF USE” (Genentech, Inc., priority 2012, published 2016):

Biological target: T1, ITK (Homo sapiens, UniProt Q08881)
T1 construct: purchased Invitrogen PV3875
T1 sequence (Q08881 1-620): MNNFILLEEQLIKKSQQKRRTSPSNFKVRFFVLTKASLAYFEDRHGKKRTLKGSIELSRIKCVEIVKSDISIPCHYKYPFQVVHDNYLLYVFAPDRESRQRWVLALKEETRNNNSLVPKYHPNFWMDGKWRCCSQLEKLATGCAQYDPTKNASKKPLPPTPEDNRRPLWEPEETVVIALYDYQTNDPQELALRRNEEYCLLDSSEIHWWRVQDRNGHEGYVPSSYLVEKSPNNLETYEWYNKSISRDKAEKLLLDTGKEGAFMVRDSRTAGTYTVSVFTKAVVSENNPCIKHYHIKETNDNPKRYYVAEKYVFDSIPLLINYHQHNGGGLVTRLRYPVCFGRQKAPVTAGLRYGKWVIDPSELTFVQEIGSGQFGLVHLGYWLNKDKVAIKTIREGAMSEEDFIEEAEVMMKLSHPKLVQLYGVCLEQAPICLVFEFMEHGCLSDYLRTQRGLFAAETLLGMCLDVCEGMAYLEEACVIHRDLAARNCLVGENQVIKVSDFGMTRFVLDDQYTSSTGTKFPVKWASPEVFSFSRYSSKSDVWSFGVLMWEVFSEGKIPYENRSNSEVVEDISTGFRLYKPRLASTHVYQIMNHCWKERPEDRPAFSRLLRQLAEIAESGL
Experiment: ITK enzyme assay (Caliper or LCMS peptide phosphorylation)
Assay type: biochemical
Settings: purified ITK (Invitrogen PV3875), 20 μM ATP, Ki by Morrison's quadratic equation
Procedure: The ability of purified ITK (Invitrogen PV3875) to catalyze peptide phosphorylation is monitored using a Caliper LabChip 3000 microfluidic unit (Caliper assay) or by liquid chromatography-mass spectrometry (LCMS) using a Waters Acquity system (LCMS assay). […] Reactions are quenched by the addition of 2,2′,2″,2′″-(ethane-1,2-diyldinitrilo)tetraacetic acid (50 mM final). Non-phosphorylated substrate and phosphorylated product peptides are separated and quantified using a Caliper LabChip 3000 instrument. […] Reactions are quenched by the addition of trichloroacetic acid (5% v/v final). Non-phosphorylated substrate and phosphorylated product peptides are separated by ultra performance LC and detected by a coupled triple quadrupole MS device applying multiple reaction monitoring (MRM) for quantification. The area of the MRM-extracted mass signal is used to assess the inhibition by test compounds. Equilibrium dissociation constant (Ki) values for ITK inhibitors are calculated from plots of activity vs. inhibitor concentration using Morrison's quadratic equation that accounts for the potential of tight binding, and by also applying the conversion factor that accounts for competitive inhibition and the concentration of ATP used in the assay relative to its apparent Michaelis constant (Km,app).

Structure (SMILES) | Ki [µM]
CN(C)CCC(c1ccccc1)n1cc(NC(=O)c2n[nH]c3c2C2CC2CC3)cn1 (single isomer, unassigned) [Example 26c, N-(1-(3-(dimethylamino)-1-phenylpropyl)-1H-pyrazol-4-yl)-3,4,5,5a,6,6a-hexahydrocyclopropa[e]indazole-1-carboxamide] | 0.022
CN(C)CCC(c1ccccc1)n1cc(NC(=O)c2n[nH]c3c2C2CC2CC3)cn1 (single isomer, unassigned) [Example 26d, N-(1-(3-(dimethylamino)-1-phenylpropyl)-1H-pyrazol-4-yl)-3,4,5,5a,6,6a-hexahydrocyclopropa[e]indazole-1-carboxamide] | 0.78
Cn1cc(C(c2ccccc2)n2cc(NC(=O)c3n[nH]c4c3CC3CC3C4)cn2)cn1 (single isomer, unassigned) [Example 27a, N-(1-((1-methyl-1H-pyrazol-4-yl)(phenyl)methyl)-1H-pyrazol-4-yl)-1,4,4a,5,5a,6-hexahydro cyclopropa[f]indazole-3-carboxamide] | 0.03
Cn1cc(C(c2ccccc2)n2cc(NC(=O)c3n[nH]c4c3CC3CC3C4)cn2)cn1 (single isomer, unassigned) [Example 27b, N-(1-((1-methyl-1H-pyrazol-4-yl)(phenyl)methyl)-1H-pyrazol-4-yl)-1,4,4a,5,5a,6-hexahydro cyclopropa[f]indazole-3-carboxamide] | 0.011
Cn1cc(C(c2ccccc2)n2cc(NC(=O)c3n[nH]c4c3CC3CC3C4)cn2)cn1 (single isomer, unassigned) [Example 27c, N-(1-((1-methyl-1H-pyrazol-4-yl)(phenyl)methyl)-1H-pyrazol-4-yl)-1,4,4a,5,5a,6-hexahydro cyclopropa[f]indazole-3-carboxamide] | 0.045
Cn1cc(C(c2ccccc2)n2cc(NC(=O)c3n[nH]c4c3CC3CC3C4)cn2)cn1 (single isomer, unassigned) [Example 27d, N-(1-((1-methyl-1H-pyrazol-4-yl)(phenyl)methyl)-1H-pyrazol-4-yl)-1,4,4a,5,5a,6-hexahydro cyclopropa[f]indazole-3-carboxamide] | 0.096
CN(C)CCC(c1ccccc1)n1cc(NC(=O)c2n[nH]c3c2CC2CC2C3)cn1 (single isomer, unassigned) [Example 28a, N-(1-(3-(dimethylamino)-1-phenylpropyl)-1H-pyrazol-4-yl)-1,4,4a,5,5a,6-hexahydrocyclopropa[f]indazole-3-carboxamide] | 0.016
CN(C)CCC(c1ccccc1)n1cc(NC(=O)c2n[nH]c3c2CC2CC2C3)cn1 (single isomer, unassigned) [Example 28b, N-(1-(3-(dimethylamino)-1-phenylpropyl)-1H-pyrazol-4-yl)-1,4,4a,5,5a,6-hexahydrocyclopropa[f]indazole-3-carboxamide] | 0.006
CN(C)CCC(c1ccccc1)n1cc(NC(=O)c2n[nH]c3c2CC2CC2C3)cn1 (single isomer, unassigned) [Example 28c, N-(1-(3-(dimethylamino)-1-phenylpropyl)-1H-pyrazol-4-yl)-1,4,4a,5,5a,6-hexahydrocyclopropa[f]indazole-3-carboxamide] | 0.155
CN(C)CCC(c1ccccc1)n1cc(NC(=O)c2n[nH]c3c2CC2CC2C3)cn1 (single isomer, unassigned) [Example 28d, N-(1-(3-(dimethylamino)-1-phenylpropyl)-1H-pyrazol-4-yl)-1,4,4a,5,5a,6-hexahydrocyclopropa[f]indazole-3-carboxamide] | 0.098

The remaining lines, values ahead:

Ki [µM] | Structure (SMILES)
0.002 | CN(C)CCC(c1cccc(C(F)(F)F)c1)n1cc(NC(=O)c2n[nH]c3c2CCC(C)(C)C3)cn1 (single isomer, unassigned) [Example 30a, N-(1-(3-(dimethylamino)-1-(3-(trifluoromethyl)phenyl)propyl)-1H-pyrazol-4-yl)-6,6-dimethyl-4,5,6,7-tetrahydro-1H-indazole-3-carboxamide]
0.004 | CN(C)CCC(c1cccc(C(F)(F)F)c1)n1cc(NC(=O)c2n[nH]c3c2CCC(C)(C)C3)cn1 (single isomer, unassigned) [Example 30b, N-(1-(3-(dimethylamino)-1-(3-(trifluoromethyl)phenyl)propyl)-1H-pyrazol-4-yl)-6,6-dimethyl-4,5,6,7-tetrahydro-1H-indazole-3-carboxamide]
0.003 | CC1(C)CCc2c(C(=O)Nc3cnn(C(c4ccccc4)C4CNC4)c3)n[nH]c2C1 (single isomer, unassigned) [Example 34a, N-(1-(azetidin-3-yl(phenyl)methyl)-1H-pyrazol-4-yl)-6,6-dimethyl-4,5,6,7-tetrahydro-1H-indazole-3-carboxamide]
0.0007 | CC1(C)CCc2c(C(=O)Nc3cnn(C(c4ccccc4)C4CNC4)c3)n[nH]c2C1 (single isomer, unassigned) [Example 34b, N-(1-(azetidin-3-yl(phenyl)methyl)-1H-pyrazol-4-yl)-6,6-dimethyl-4,5,6,7-tetrahydro-1H-indazole-3-carboxamide]
0.013 | Cn1cc(C(c2ccccc2)n2cc(NC(=O)c3n[nH]c4c3C3CC3CC4)cn2)cn1 (single isomer, unassigned) [Example 35a, N-(1-((1-methyl-1H-pyrazol-4-yl)(phenyl)methyl)-1H-pyrazol-4-yl)-3,4,5,5a,6,6a-hexahydro cyclopropa[e]indazole-1-carboxamide]
0.002 | Cn1cc(C(c2ccccc2)n2cc(NC(=O)c3n[nH]c4c3C3CC3CC4)cn2)cn1 (single isomer, unassigned) [Example 35b, N-(1-((1-methyl-1H-pyrazol-4-yl)(phenyl)methyl)-1H-pyrazol-4-yl)-3,4,5,5a,6,6a-hexahydro cyclopropa[e]indazole-1-carboxamide]
0.22 | Cn1cc(C(c2ccccc2)n2cc(NC(=O)c3n[nH]c4c3C3CC3CC4)cn2)cn1 (single isomer, unassigned) [Example 35c, N-(1-((1-methyl-1H-pyrazol-4-yl)(phenyl)methyl)-1H-pyrazol-4-yl)-3,4,5,5a,6,6a-hexahydro cyclopropa[e]indazole-1-carboxamide]
0.19 | Cn1cc(C(c2ccccc2)n2cc(NC(=O)c3n[nH]c4c3C3CC3CC4)cn2)cn1 (single isomer, unassigned) [Example 35d, N-(1-((1-methyl-1H-pyrazol-4-yl)(phenyl)methyl)-1H-pyrazol-4-yl)-3,4,5,5a,6,6a-hexahydro cyclopropa[e]indazole-1-carboxamide]
0.014 | CC(=O)N1CC(C(c2ccccc2)n2cc(NC(=O)c3n[nH]c4c3CCC(C)(C)C4)cn2)C1 (single isomer, unassigned) [Example 37a, N-(1-((1-acetylazetidin-3-yl)(phenyl)methyl)-1H-pyrazol-4-yl)-6,6-dimethyl-4,5,6,7-tetrahydro-1H-indazole-3-carboxamide]
0.002 | CC(=O)N1CC(C(c2ccccc2)n2cc(NC(=O)c3n[nH]c4c3CCC(C)(C)C4)cn2)C1 (single isomer, unassigned) [Example 37b, N-(1-((1-acetylazetidin-3-yl)(phenyl)methyl)-1H-pyrazol-4-yl)-6,6-dimethyl-4,5,6,7-tetrahydro-1H-indazole-3-carboxamide]
0.004 | CN1CC(C(c2ccccc2)n2cc(NC(=O)c3n[nH]c4c3CCC(C)(C)C4)cn2)C1 (single isomer, unassigned) [Example 38a, 6,6-dimethyl-N-(1-((1-methylazetidin-3-yl)(phenyl)methyl)-1H-pyrazol-4-yl)-4,5,6,7-tetrahydro-1H-indazole-3-carboxamide]
0.0005 | CN1CC(C(c2ccccc2)n2cc(NC(=O)c3n[nH]c4c3CCC(C)(C)C4)cn2)C1 (single isomer, unassigned) [Example 38b, 6,6-dimethyl-N-(1-((1-methylazetidin-3-yl)(phenyl)methyl)-1H-pyrazol-4-yl)-4,5,6,7-tetrahydro-1H-indazole-3-carboxamide]
0.0007 | CNCCC(c1ccccc1)n1cc(NC(=O)c2n[nH]c3c2CCC(C)(C)C3)cn1 (single isomer, unassigned) [Example 39a, 6,6-dimethyl-N-(1-(3-(methylamino)-1-phenylpropyl)-1H-pyrazol-4-yl)-4,5,6,7-tetrahydro-1H-indazole-3-carboxamide]
0.006 | CNCCC(c1ccccc1)n1cc(NC(=O)c2n[nH]c3c2CCC(C)(C)C3)cn1 (single isomer, unassigned) [Example 39b, 6,6-dimethyl-N-(1-(3-(methylamino)-1-phenylpropyl)-1H-pyrazol-4-yl)-4,5,6,7-tetrahydro-1H-indazole-3-carboxamide]
